The record followed here is patent US6723726B1 (SmithKline Beecham Corporation, priority 1996, dated 2004).

SMILES strings stand for the structures. Counter-ions that a name gives are not always drawn. Like-named read-outs stand apart in the source and are kept apart here. Some results are limits rather than exact numbers.

The target in assay [1] is T1, c-erbB-2 (baculovirus expressed recombinant intracellular domain) (Homo sapiens, UniProt P04626).
T1 construct: baculovirus expressed, recombinant constructs of the intracellular domains of c-erbB-2 and c-erbB-4 that are constitutively active; made in house
Nature of the assay: Substrate phosphorylation assay, c-erbB-2. The assay is classed as biochemical. As to conditions: ATP and peptide at Km, 30 min, room temperature. As to the method:
(§1) The substrate phosphorylation assays use baculovirus expressed, recombinant constructs of the intracellular domains of c-erbB-2 and c-erbB-4 that are constitutively active and EGFr isolated from solubilised A431 cell membranes. The method measures the ability of the isolated enzymes to catalyse the transfer of the γ-phosphate from ATP onto tyrosine residues in a biotinylated synthetic peptide (Biotin-[…]. […] The reaction is stopped by the addition of EDTA (final concentration 0.15 mM) and a sample is transferred to a streptavidin-coated 96-well plate. The plate is washed and level of phosphotyrosine on the peptide is determined using a Europium-labelled antiphosphotyrosine antibody and quantified with a time-resolved fluorescence technique.

The target of assay [2] is T2, c-erbB-4 (baculovirus expressed recombinant intracellular domain) (Homo sapiens, UniProt Q15303).
T2 construct: baculovirus expressed, recombinant constructs of the intracellular domains of c-erbB-2 and c-erbB-4 that are constitutively active; made in house
Kind of assay: Substrate phosphorylation assay, c-erbB-4. Format: biochemical. As to conditions: ATP and peptide at Km, 30 min, room temperature. As to the method: as §1

A further assay has as its system HB4a erbB-2 cells. Kind of assay: Cell proliferation assay, HB4a transformed by over-expression of c-erbB-2. The assay is classed as cell-based, human. The conditions noted are these: read-out: Cell Proliferation HB4a erbB-2 IC50. As to the method: (§2) The cell proliferation assay uses an immortalised human breast epithelial cell line (HB4a) which has been transformed by over-expression of c-erbB-2. Growth of these cells in low serum is dependent upon the c-erbB-2 tyrosine kinase activity. The specificity of the effect of the test compounds on tyrosine kinase dependent growth over general toxicity is assessed by comparison to an HB4a cell line which has been transfected with ras. Cells are plated at 3000/well in 96-well plates in 0.1 ml medium and allowed to attach overnight, test compound is added in 0.1 ml medium, with a final concentration of 0.5% DMSO, and the plates incubated for 4 days at 37° C. The cells are then examined microscopically for evidence of morphological detransformation and cell mass is estimated by staining with methylene blue and measuring the absorbance at 620 nm. The results are shown in Table 1 below as the IC50 values in nM. Activity against a range of naturally occurring EGFr or c-erbB-2 over-expressing human tumour cell lines (BT474-breast, HN5-head and neck, N87-gastric and Calu3-lung) is assessed with selected compounds by the same methodology. The results are also shown in Table 1 below as the IC50 values in nM.

In a further assay the test system is HB4a ras cells. Kind of assay: Cell proliferation assay, HB4a transfected with ras (general toxicity comparison). The assay is classed as cell-based, human. The conditions noted are these: read-out: Cell Proliferation HB4a ras IC50. As to the method:
as §2

In the next assay the test system is HN5 cells. Kind of assay: Cell proliferation assay, HN5 head and neck tumour cell line. Format: cell-based. As to conditions: Homo sapiens, HN5, 96 h; 4 days, methylene blue staining; read-out: Cell Proliferation HN5 IC50. As to the method:
as §2

Assay [3] deals with T3, EGFr isolated from solubilised A431 cell membranes (Homo sapiens, UniProt P00533).
T3 construct: EGFr isolated from solubilised A431 cell membranes; endogenous in cells; host or cells: A431 cell membranes (solubilised)
Kind of assay: Substrate phosphorylation assay, EGFr. The conditions noted are these: ATP and peptide at Km, 30 min, room temperature. The assay is classed as biochemical. As to the method:
as §1

The mark [4] stands for this setting: Homo sapiens, HB4a, 96 h, 4 days, methylene blue staining.
Setting [5] is: 4 days, methylene blue staining.

T3 sequence (P00533 25-1210): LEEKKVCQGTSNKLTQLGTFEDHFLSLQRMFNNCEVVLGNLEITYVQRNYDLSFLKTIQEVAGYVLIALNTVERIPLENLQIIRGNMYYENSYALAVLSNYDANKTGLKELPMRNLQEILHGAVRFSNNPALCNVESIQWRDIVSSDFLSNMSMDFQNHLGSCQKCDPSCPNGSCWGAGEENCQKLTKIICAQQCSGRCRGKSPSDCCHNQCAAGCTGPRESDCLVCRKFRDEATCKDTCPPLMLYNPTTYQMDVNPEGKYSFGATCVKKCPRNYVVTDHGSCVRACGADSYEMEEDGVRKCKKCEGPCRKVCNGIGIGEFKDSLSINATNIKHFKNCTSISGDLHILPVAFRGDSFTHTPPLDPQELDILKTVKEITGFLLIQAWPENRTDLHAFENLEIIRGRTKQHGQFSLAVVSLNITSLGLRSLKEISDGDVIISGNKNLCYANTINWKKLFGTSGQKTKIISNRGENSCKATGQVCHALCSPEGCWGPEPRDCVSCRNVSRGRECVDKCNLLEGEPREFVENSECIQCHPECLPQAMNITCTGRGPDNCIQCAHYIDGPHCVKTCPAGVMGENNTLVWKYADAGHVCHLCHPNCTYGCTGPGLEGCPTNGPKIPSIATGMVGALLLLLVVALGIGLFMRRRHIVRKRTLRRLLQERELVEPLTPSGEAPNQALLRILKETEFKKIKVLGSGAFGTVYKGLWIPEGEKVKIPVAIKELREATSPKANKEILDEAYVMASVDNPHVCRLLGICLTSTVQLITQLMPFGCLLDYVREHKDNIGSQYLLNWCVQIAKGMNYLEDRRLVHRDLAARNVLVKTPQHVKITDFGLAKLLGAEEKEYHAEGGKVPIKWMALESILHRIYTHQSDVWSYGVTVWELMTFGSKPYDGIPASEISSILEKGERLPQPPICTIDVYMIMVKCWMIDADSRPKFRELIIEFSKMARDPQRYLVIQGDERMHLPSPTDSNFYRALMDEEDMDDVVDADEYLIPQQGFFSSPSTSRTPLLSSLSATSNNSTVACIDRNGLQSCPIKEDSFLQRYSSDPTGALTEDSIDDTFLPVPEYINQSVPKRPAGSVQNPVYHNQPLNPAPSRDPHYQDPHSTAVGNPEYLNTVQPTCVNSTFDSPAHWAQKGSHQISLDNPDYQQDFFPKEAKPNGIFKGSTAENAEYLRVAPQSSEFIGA
T2 sequence (Q15303 676-1308 limits assumed): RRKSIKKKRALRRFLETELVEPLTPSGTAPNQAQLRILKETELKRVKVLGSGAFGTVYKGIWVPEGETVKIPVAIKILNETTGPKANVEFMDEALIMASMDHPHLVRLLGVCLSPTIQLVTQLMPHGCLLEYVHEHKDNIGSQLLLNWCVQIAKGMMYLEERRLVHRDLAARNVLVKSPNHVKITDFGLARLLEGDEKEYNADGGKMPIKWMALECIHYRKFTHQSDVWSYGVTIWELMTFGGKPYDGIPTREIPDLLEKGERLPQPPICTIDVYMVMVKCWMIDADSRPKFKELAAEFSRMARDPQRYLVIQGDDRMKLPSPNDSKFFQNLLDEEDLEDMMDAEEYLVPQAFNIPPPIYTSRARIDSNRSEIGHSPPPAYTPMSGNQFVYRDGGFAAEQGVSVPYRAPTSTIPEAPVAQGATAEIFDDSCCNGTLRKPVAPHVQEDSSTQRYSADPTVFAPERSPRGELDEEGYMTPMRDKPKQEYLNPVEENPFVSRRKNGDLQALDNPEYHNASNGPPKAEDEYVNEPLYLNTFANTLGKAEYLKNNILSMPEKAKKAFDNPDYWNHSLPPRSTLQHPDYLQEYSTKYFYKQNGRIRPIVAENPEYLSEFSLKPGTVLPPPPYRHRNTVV
T1 sequence (P04626 676-1255 limits assumed): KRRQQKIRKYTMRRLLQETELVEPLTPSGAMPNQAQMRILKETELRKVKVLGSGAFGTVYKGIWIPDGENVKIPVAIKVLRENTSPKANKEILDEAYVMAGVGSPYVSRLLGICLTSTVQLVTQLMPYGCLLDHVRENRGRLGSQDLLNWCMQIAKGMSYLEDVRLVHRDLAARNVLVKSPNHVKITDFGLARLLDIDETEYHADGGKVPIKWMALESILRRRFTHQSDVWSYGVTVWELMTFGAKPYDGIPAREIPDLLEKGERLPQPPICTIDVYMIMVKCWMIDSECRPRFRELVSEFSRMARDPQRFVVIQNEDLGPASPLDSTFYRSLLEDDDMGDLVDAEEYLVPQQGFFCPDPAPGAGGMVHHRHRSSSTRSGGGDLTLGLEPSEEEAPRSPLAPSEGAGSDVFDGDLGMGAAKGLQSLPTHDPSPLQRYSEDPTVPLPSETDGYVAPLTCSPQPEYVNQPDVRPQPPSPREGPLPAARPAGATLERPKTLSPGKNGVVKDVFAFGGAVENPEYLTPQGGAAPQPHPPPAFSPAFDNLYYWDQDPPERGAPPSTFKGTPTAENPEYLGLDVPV

Turning to `Clc1cc2c(Nc3ccc4c(cnn4Cc4ccccc4)c3)ncnc2cn1` [Example 1, (1-Benzyl-1H-indazol-5-yl)-(6-chloro-pyrido[3,4-d]pyrimidin-4-yl)-amine Hydrochloride], the IC50 in assay [1] amounted to 0.027 µM; in assay [2] it was 0.048 µM.
As for `c1ccc(Cn2ncc3cc(Nc4ncnc5cnccc45)ccc32)cc1` [Example 4, (1-Benzyl-1H-indazol-5-yl)-(pyrido[3,4-d]pyrimidin-4-yl)-amine], the IC50 was determined as 0.12 µM in assay [1], 3.9 µM in the assay with HB4a erbB-2 cells (setting [4]), 1.3 µM in assay [2] and 13 µM in the assay on HB4a ras cells (setting [4]).
Regarding `CN(C)c1cc2c(Nc3ccc4c(ccn4Cc4ccccc4)c3)ncnc2cn1` [Example 6, N4-(1-Benzyl-1H-indol-5-yl)-N6,N6-dimethyl-pyrido[3,4-d]pyrimidine-4,6-diamine], the IC50 in assay [1] came to 0.011 µM; in the assay with HN5 cells it was 0.32 µM; in assay [2], 0.15 µM.
Consider `CN(C)c1cc2c(Nc3ccc4c(cnn4Cc4ccccn4)c3)ncnc2cn1` [Example 12, N6,N6-Dimethyl-N4-(1-pyridin-2-ylmethyl-1H-indazol-5-yl)-pyrido[3,4-d]pyrimidine-4,6diamine Hydrochloride], for which the IC50 in assay [1] stood at 0.001 µM; in assay [3], 0.077 µM; in the assay with HB4a erbB-2 cells (setting [4]), 0.17 µM; in assay [2], 0.003 µM; in the assay with HB4a ras cells (setting [4]) it was 32 µM.
On to `CN(C)c1cc2c(Nc3ccc4c(cnn4Cc4cccnc4)c3)ncnc2cn1` [Example 13, N6,N6-Dimethyl-N4-(1-pyridin-3-ylmethyl-1H-indazol-5-yl)-pyrido[3,4-d]pyrimidine-4,6-diamine Hydrochloride], for which the IC50 is 0.05 µM in assay [1]; 0.37 µM in assay [3]; 0.24 µM with HB4a erbB-2 cells (setting [4]); 2.4 µM in assay [2]; 28 µM with HB4a ras cells (setting [4]).
With `Cc1nn(Cc2ccccc2)c2ccc(Nc3ncnc4cnc(N(C)C)cc34)cc12` [Example 14, N4-(1-Benzyl-3-methyl-1H-indazol-5-yl)-N6,N6-dimethyl-pyrido[3,4-d]pyrimidine-4,6-diamine], the IC50 in assay [1] was 0.43 µM; in assay [3] it was 0.83 µM; with HB4a erbB-2 cells (setting [4]), 0.95 µM; in assay [2], 1.5 µM; in the assay on HB4a ras cells (setting [4]) it was 7.9 µM.
As to `CN(C)c1cc2c(Nc3ccc4c(cnn4Cc4ccccc4F)c3)ncnc2cn1` [Example 15, N4-(1-(2-Fluoro-benzyl)1H-indazol-5-yl)-N6,N6-dimethyl-pyrido[3,4-d]pyrimidine-4.6-diamine Hydrochloride], the IC50 in assay [1] amounted to 0.007 µM; in the assay on HB4a erbB-2 cells (setting [4]), 0.004 µM; in assay [2], 0.004 µM; in the assay with HB4a ras cells (setting [4]), 14 µM.
For `CN(C)c1cc2c(Nc3ccc4c(ccn4S(=O)(=O)c4ccccc4)c3)ncnc2cn1` [Example 18, N4-(1-Benzenesulphonyl-1H-indol-5-yl)-N6,N6-dimethyl-pyrido[3,4-d]pyrimidine-4,6-diamine Hydrochloride], the IC50 was found to be 0.098 µM in assay [1]; 0.29 µM in assay [3]; 0.44 µM in the assay on HN5 cells; 0.021 µM in the assay on HB4a erbB-2 cells (setting [4]); 1.7 µM in assay [2]; 19 µM in the assay on HB4a ras cells (setting [4]).
As to `CN(C)c1cc2c(Nc3ccc4c(S(=O)(=O)c5ccccc5)c[nH]c4c3)ncnc2cn1` [Example 19, Hydrochloride], the IC50 in assay [1] amounted to 0.006 µM; in assay [3] it was 0.54 µM; in the assay on HB4a erbB-2 cells (Homo sapiens, HB4a, 96 h), 1.2 µM; in assay [2], 0.13 µM; with HB4a ras cells (Homo sapiens, HB4a, 96 h) it was 33 µM.
On to `c1ccc(Cn2ncc3cc(Nc4ncnc5cnc(-n6ccnc6)cc45)ccc32)cc1` [Example 20, (1-Benzyl-1H-indazol-5-yl)-(6-imidazol-1-yl-pyrido[3,4-d]pyrimidin-4-yl)-amine], for which the IC50 in assay [1] turned out to be 0.033 µM; in assay [3], 0.004 µM; in the assay on HB4a erbB-2 cells (setting [4]) it was 0.47 µM; in the assay with HB4a ras cells (setting [4]), 14 µM.
Consider `c1ccc(Cn2ncc3cc(Nc4ncnc5cnc(-n6cncn6)cc45)ccc32)cc1` [Example 21], for which the IC50 amounted to 0.054 µM in assay [3], 0.5 µM with HB4a erbB-2 cells (setting [5]) and 18 µM in the assay on HB4a ras cells (setting [5]).
On to `c1ccc(Cn2ncc3cc(Nc4ncnc5cnc(-n6nccn6)cc45)ccc32)cc1` [Example 22], for which the IC50 in assay [3] was 0.022 µM; in the assay with HB4a erbB-2 cells (setting [5]), 1.7 µM; in the assay on HB4a ras cells (setting [5]), 18 µM.
As for `c1ccc(Cn2ncc3cc(Nc4ncnc5cnc(-n6ccnn6)cc45)ccc32)cc1` [Example 23], the figures for the IC50 (in assay [3]; in the assay on HB4a erbB-2 cells (setting [5]); with HB4a ras cells (setting [5])) were 0.031 µM, 0.25 µM and 22 µM, respectively.
For `CCN(C)c1cc2c(Nc3ccc4c(cnn4Cc4ccccc4)c3)ncnc2cn1` [Example 26, N4-(1-Benzyl-1H-indazol-5-yl)-N6-ethyl-N6-methyl-pyrido[3,4-d]pyrimidine-4.6-diamine], the IC50 in assay [1] was 0.029 µM; in assay [3], 0.054 µM; with HB4a erbB-2 cells (setting [5]), 0.15 µM; with HB4a ras cells (setting [5]), 8.9 µM.
With `CC(C)NC(=O)CN1CCN(c2cc3c(Nc4ccc5c(cnn5Cc5ccccc5)c4)ncnc3cn2)CC1` [Example 27, 2-(4-(4-(1-Benzyl-1H-indazol-5-ylamino)-pyrido[3,4-d]pyrimidin-6-yl)-piperazin-1-yl)-N-isopropyl-acetamide], the IC50 is 0.002 µM in assay [1], 0.38 µM in the assay with HB4a erbB-2 cells (setting [4]), 0.19 µM in assay [2] and 21 µM in the assay with HB4a ras cells (setting [4]).
For the molecule `O=C(CN1CCN(c2cc3c(Nc4ccc5c(cnn5Cc5ccccc5)c4)ncnc3cn2)CC1)N1CCOCC1` [Example 28, 2-(4-(4-(1-Benzyl-1H-indazol-5-ylamino)-pyrido[3,4-d]pyrimidin-6-yl)-piperazin-1-yl)-1-morpholin-4-yl-ethanone], the IC50 was found to be 0.004 µM in assay [1], 0.59 µM in the assay with HB4a erbB-2 cells (setting [4]), 0.17 µM in assay [2] and 28 µM with HB4a ras cells (setting [4]).
As for `Cc1nnc(-c2cc3c(Nc4ccc5c(cnn5Cc5cccc(F)c5)c4)ncnc3cn2)o1` [Example 30, (1-(3-Fluoro-benzyl)-1H-indazol-5-yl)-(6-(5-methyl-1,3,4-oxadiazol-2-yl)-pyrido[3,4-d]pyrimidin-4-yl)-amine Hydrochloride], the IC50 in assay [1] was found to be 0.002 µM; in assay [3], 0.002 µM; in the assay on HB4a erbB-2 cells (setting [4]), 2.9 µM; in assay [2], 9.6 µM; in the assay with HB4a ras cells (setting [4]), 26 µM.
For the molecule `c1ccc(COc2cc3c(Nc4ccc5c(cnn5Cc5ccccc5)c4)ncnc3cn2)cc1` [Example 33, (1-Benzyl-1H-indazolyl-5-yl)-(6-benzyloxy-pyrido[3,4-d]pyrimidin-4-yl)-amine Hydrochloride], the IC50 in assay [1] is 0.14 µM; in assay [3] it was 1.9 µM; in the assay with HB4a erbB-2 cells (setting [4]), over 50 µM; in assay [2] it was 2.7 µM; in the assay with HB4a ras cells (setting [4]) it was 50 µM.
`O=C(O)c1ccc(-c2cc3c(Nc4ccc5c(cnn5Cc5ccccc5)c4)ncnc3cn2)o1` [Example 35, 5-[4-(1-Benzyl-1H-indazol-5-ylamino)-pyrido-[3,4-d]pyrimidin-6-yl]-furan-2-carboxylic Acid Hydrochloride]: the IC50 in assay [3] was 1.6 µM; in the assay on HB4a erbB-2 cells (setting [4]), 27 µM; in the assay with HB4a ras cells (setting [4]), over 50 µM.
Regarding `CS(=O)(=O)CCNC(=O)c1ccc(-c2cc3c(Nc4ccc5c(cnn5Cc5ccccc5)c4)ncnc3cn2)o1` [Example 36, 5-[4-(1-benzyl-1H-indazol-5-ylamino)-pyrido-[3,4-d]pyrimidin-6-yl]-furan-2-carboxylic Acid 2-methanesulphonyl-ethylamide Hydrochloride], the IC50 in assay [3] is 1.6 µM; in the assay with HB4a erbB-2 cells (setting [4]), 3.1 µM; with HB4a ras cells (setting [4]), over 50 µM.
As to `CN(C)c1cc2c(Nc3ccc4c(cnn4Cc4ccc(O)cc4)c3)ncnc2cn1` [Example 38, N4-[1-(4-Hydroxybenzyl)-1H-indazol-5-yl)-N6,N6-dimethyl-pyrido[3,4-d]pyrimidine-4,6-diamine], the IC50 in assay [1] turned out to be 0.33 µM; in assay [3] it was 0.93 µM; in the assay on HB4a erbB-2 cells (setting [4]) it was 6.9 µM; in assay [2] it was 1.9 µM; in the assay with HB4a ras cells (setting [4]), 50 µM.
